From PubChem BioAssay AID328 (DTP/NCI, 2004)
Several values for one entry are separate records, joined by “and”; a condition that tells them apart may be missing. Identical values can stand only once. Inconclusive results and toxic doses are left out. How the source made its calls: active means survival T/C of 150% or more; inactive means T/C below 125% in these data.

System: BDF1 mice, P388 leukemia ip, median survival T/C
Experiment: NCI In Vivo Anticancer Drug Screen. Data for tumor model P388 Leukemia (intraperitoneal) in B6D2F1 (BDF1) mice
Details: endpoint: median survival time, higher = longer survival
Summary of the method: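 Antitumour effect was judged in vivo: survival in drug-treated mice, normalised to that of vehicle-dosed controls, gives the reported T/C.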

Measured: T/C

COC1C(O)CC(OC2CC(Oc3cc4cc5c(c(O)c4c(O)c3C)C(=O)[C@@H](OC3CC(OC4CC(OC6CC(C)(O)C(OC(C)=O)C(C)O6)C(O)C(C)O4)C(O)C(C)O3)[C@H]([C@H](OC)C(=O)[C@@H](O)[C@@H](C)O)C5)OC(C)C2OC(C)=O)OC1C (stereo not given in full)
active: dose: 0.02 mg/kg/injection, schedule: Q01DX005 (ip), vehicle: saline 166 % of control | dose: 0.03 mg/kg/injection, schedule: Q01DX005 (ip), vehicle: saline 168 % of control | dose: 0.03 mg/kg/injection, schedule: Q01DX009 (ip), vehicle: saline 150 % of control | dose: 0.05 mg/kg/injection, schedule: Q01DX005 (ip), vehicle: clinical formulation 183 % of control | dose: 0.05 mg/kg/injection, schedule: Q01DX005 (ip), vehicle: saline 166 % of control and 183 % of control and 187 % of control | dose: 0.06 mg/kg/injection, schedule: Q01DX005 (ip), vehicle: saline 172 % of control | dose: 0.06 mg/kg/injection, schedule: Q01DX009 (ip), vehicle: saline 172 % of control | dose: 0.1 mg/kg/injection, schedule: Q01DX005 (ip), vehicle: clinical formulation 200 % of control | dose: 0.1 mg/kg/injection, schedule: Q01DX005 (ip), vehicle: saline 187 % of control (2×) and 193 % of control | dose: 0.13 mg/kg/injection, schedule: Q01DX005 (ip), vehicle: saline 177 % of control | dose: 0.13 mg/kg/injection, schedule: Q01DX009 (ip), vehicle: saline 172 % of control | dose: 0.15 mg/kg/injection, schedule: Q01DX005 (ip), vehicle: clinical formulation 225 % of control | dose: 0.15 mg/kg/injection, schedule: Q01DX005 (ip), vehicle: saline 204 % of control | dose: 0.2 mg/kg/injection, schedule: Q01DX005 (ip), vehicle: clinical formulation 170 % of control | dose: 0.2 mg/kg/injection, schedule: Q01DX005 (ip), vehicle: saline 254 % of control and 260 % of control and 158 % of control | dose: 0.25 mg/kg/injection, schedule: Q04DX003 (ip), vehicle: saline 200 % of control | dose: 0.4 mg/kg/injection, schedule: Q01DX001 (ip), vehicle: saline 150 % of control | dose: 0.5 mg/kg/injection, schedule: Q01DX001 (ip), vehicle: other 175 % of control | dose: 0.8 mg/kg/injection, schedule: Q01DX001 (ip), vehicle: saline 170 % of control | dose: 1.6 mg/kg/injection, schedule: Q01DX001 (ip), vehicle: saline 162 % of control | dose: 3.8 micrograms/kg/injection, schedule: Q03HX024 (ip), vehicle: saline 177 % of control | dose: 8.0 micrograms/kg/injection, schedule: Q01DX010 (ip), vehicle: saline 150 % of control | dose: 16.0 micrograms/kg/injection, schedule: Q01DX010 (ip), vehicle: saline 160 % of control | dose: 32.0 micrograms/kg/injection, schedule: Q01DX010 (ip), vehicle: saline 180 % of control and 195 % of control | dose: 60.0 micrograms/kg/injection, schedule: Q01DX010 (ip), vehicle: saline 154 % of control | dose: 62.0 micrograms/kg/injection, schedule: Q01DX009 (ip), vehicle: other 150 % of control | dose: 63.0 micrograms/kg/injection, schedule: Q01DX010 (ip), vehicle: saline 163 % of control and 185 % of control and 210 % of control | dose: 125.0 micrograms/kg/injection, schedule: Q01DX001 (ip), vehicle: clinical formulation 154 % of control and 168 % of control and 181 % of control | dose: 125.0 micrograms/kg/injection, schedule: Q01DX001 (ip), vehicle: water 213 % of control | dose: 125.0 micrograms/kg/injection, schedule: Q01DX009 (ip), vehicle: other 166 % of control | dose: 125.0 micrograms/kg/injection, schedule: Q01DX010 (ip), vehicle: saline 300 % of control and 209 % of control | dose: 250.0 micrograms/kg/injection, schedule: Q01DX001 (ip), vehicle: clinical formulation 186 % of control and 195 % of control and 200 % of control | dose: 250.0 micrograms/kg/injection, schedule: Q01DX001 (ip), vehicle: water 250 % of control | dose: 500.0 micrograms/kg/injection, schedule: Q01DX001 (ip), vehicle: clinical formulation 236 % of control and 190 % of control and 213 % of control | dose: 1000.0 micrograms/kg/injection, schedule: Q01DX001 (ip), vehicle: clinical formulation 231 % of control
inactive: dose: 0.03 mg/kg/injection, schedule: Q01DX001 (ip), vehicle: saline 109 % of control | dose: 0.13 mg/kg/injection, schedule: Q01DX001 (oral), vehicle: saline 100 % of control | dose: 0.13 mg/kg/injection, schedule: Q01DX001 (sc), vehicle: Klucel (hydroxypropylcellulose) (HPC) 100 % of control | dose: 0.13 mg/kg/injection, schedule: Q01DX010 (oral), vehicle: saline 100 % of control | dose: 0.13 mg/kg/injection, schedule: Q01DX010 (sc), vehicle: Klucel (hydroxypropylcellulose) (HPC) 109 % of control | dose: 0.25 mg/kg/injection, schedule: Q01DX001 (sc), vehicle: Klucel (hydroxypropylcellulose) (HPC) 100 % of control | dose: 0.25 mg/kg/injection, schedule: Q01DX009 (ip), vehicle: saline 95 % of control | dose: 0.25 mg/kg/injection, schedule: Q01DX010 (sc), vehicle: Klucel (hydroxypropylcellulose) (HPC) 95 % of control | dose: 0.5 mg/kg/injection, schedule: Q01DX001 (oral), vehicle: saline 95 % of control | dose: 0.5 mg/kg/injection, schedule: Q01DX001 (sc), vehicle: Klucel (hydroxypropylcellulose) (HPC) 109 % of control | dose: 0.5 mg/kg/injection, schedule: Q01DX010 (oral), vehicle: saline 109 % of control | dose: 0.5 mg/kg/injection, schedule: Q04DX003 (ip), vehicle: saline 100 % of control | dose: 1.0 mg/kg/injection, schedule: Q01DX010 (oral), vehicle: saline 100 % of control | dose: 2.0 mg/kg/injection, schedule: Q01DX001 (oral), vehicle: saline 109 % of control | dose: 2.0 mg/kg/injection, schedule: Q01DX010 (oral), vehicle: saline 100 % of control | dose: 0.9 micrograms/kg/injection, schedule: Q01DX010 (ip), vehicle: saline 90 % of control | dose: 1.9 micrograms/kg/injection, schedule: Q01DX010 (ip), vehicle: saline 86 % of control | dose: 3.8 micrograms/kg/injection, schedule: Q01DX010 (ip), vehicle: saline 100 % of control | dose: 200.0 micrograms/kg/injection, schedule: Q01DX009 (ip), vehicle: saline 100 % of control | dose: 2000.0 micrograms/kg/injection, schedule: Q01DX001 (ip), vehicle: clinical formulation 100 % of control
